Measured values published in patent US4053615A, “Phthalimidopiperidines and anti-convulsant compositions thereof” (John Wyeth & Brother Limited, priority 1972, dated 1977).

Assays:
[1] = system: tonic extensor seizures (maximal electroshock); assay: Procedure B: maximal electroshock seizures (MES); type: in vivo; parameters: key to Activity class, Procedure B: INACTIVE: A compound is regarded as inactive in either one of the two procedures if the ED50 of the compound in the test procedure is greater than 400 mg/kg; conditions: mice, orally; for ED50: Mus musculus, po, 1 h, supramaximal electroshock one hour later (25 mA, 0.2 sec), read-out: ED50 (against convulsions), Procedure B
Description: MAXIMAL ELECTROSHOCK SEIZURES (MES)
Compounds at graded dose levels are administered orally to groups of six mice. One hour later, the animals are given a supramaximal electroshock through pinna electrodes (25 mA, 0.2 sec). Presence or absence of tonic extensor seizures as well as the number of deaths are recorded.
The percent protection against seizures is calculated. An ED50 against convulsions is calculated from probit-log dose curves.

[2] = system: clonic and tonic convulsions induced by pentylenetetrazole; assay: Procedure A: anti-pentylenetetrazole activity; type: in vivo; parameters: key to Activity class, Procedure A: INACTIVE: A compound is regarded as inactive in either one of the two procedures if the ED50 of the compound in the test procedure is greater than 400 mg/kg; conditions: mice, p.o.; for ED50: Mus musculus, po, 1 h, challenge one hour later with pentylenetetrazole 125 mg/kg i.p., read-out: ED50 (against convulsions), Procedure A
Description: ANTI-PENTYLENETETRAZOLE ACTIVITY
Compounds at a number of dose levels are administered p.o. to groups of six mice (3 males and 3 females). One hour later the animals are challenged with pentylenetetrazole (125mg/kg i.p.). The incidence of clonic and tonic convulsions and deaths is observed for one-half hour. Protection against convulsions and death is determined by comparison with controls run simultaneously. An ED50 against convulsions is calculated from probit-log dose curves.

[3] = Anti-inflammatory activity; type: in vivo; conditions: when tested on warm blooded animals
[4] = system: blood platelet aggregation; assay: Inhibition of blood platelet aggregation
Anti-arrhythmic activity = type: in vivo; conditions: when tested on warm blooded animals

| SMILES | ED50 [2] [mg/kg] | also measured |
| --- | --- | --- |
| CCN1CCC(N2C(=O)c3ccccc3C2=O)C1 (stereo not shown) [1-ethyl-3-phthalimido-pyrrolidine, 1-ethyl-3-phthalimidopyrrolidine, reference compound] | > 400 | ED50 [1]: > 400 mg/kg; Activity class, Procedure B ([1]; maximal electroshock): INACTIVE; Activity class, Procedure A ([2]; pentylenetetrazole challenge): INACTIVE |
| O=C1c2ccccc2C(=O)N1C1CCN(Cc2ccccc2)CC1 [Example 1, 1-Benzyl-4-phthalimido-piperidine] | – | anti-inflammatory activity [3]: Anti-inflammatory activity is shown |
| O=C1c2ccccc2C(=O)N1C1CCNCC1 [Example 2, 4-Phthalimido-piperidine] | – | inhibition of blood platelet aggregation [4]: active as an inhibitor of blood platelet aggregation |
| CCN1CCCC(N2C(=O)c3ccccc3C2=O)C1 (stereo not shown) [Example 3, 1-Ethyl-3-phthalimido-piperidine] | 51 to 100 | ED50 [1]: 31 to 50 mg/kg; anti-arrhythmic activity (Anti-arrhythmic activity): anti-arrhythmic activity is shown |
| CCN1CCCC(N2C(=O)c3ccc([N+](=O)[O-])cc3C2=O)C1 (stereo not shown) [Example 4, 1-Ethyl-3-(4-nitrophthalimido)piperidine] | 6 to 15 | anti-arrhythmic activity (Anti-arrhythmic activity): anti-arrhythmic activity is shown |
| CCN1CCCC(N2C(=O)c3ccc(N)cc3C2=O)C1 (stereo not shown) [Example 6, 3-(4-Aminophthalimido)-1-ethylpiperidine] | 6 to 15 | – |
| CCCCN1CCC(N2C(=O)c3ccc([N+](=O)[O-])cc3C2=O)CC1 [Example 12, 1-n-Butyl-4-(4-nitrophthalimido)piperidine] | 6 to 15 | – |
| CCCCN1CCC(N2C(=O)c3ccc(N)cc3C2=O)CC1 [Example 13, 4-(4-Aminophthalimido)-1-n-butylpiperidine] | 6 to 15 | – |
| O=C1c2ccc([N+](=O)[O-])cc2C(=O)N1C1CCN(Cc2ccccc2)CC1 [Example 15, 1-Benzyl-4-(4-nitrophthalimido)piperidine] | 6 to 15 | – |
| Nc1ccc2c(c1)C(=O)N(C1CCN(Cc3ccccc3)CC1)C2=O [Example 16, 4-(4-Aminophthalimido)-1-benzylpiperidine] | 6 to 15 | – |
